Test results from US10485235B2, “Aryloxypyrimidinyl ethers as herbicides” (FMC Corporation, priority 2015, dated 2019).

Tested on: pigweed (Amaranthus retroflexus)
Experiment: Test A preemergence, pigweed
Type: in vivo
Conditions: Preemergence, 125 g ai/ha; 0 to 100 scale (0 no effect, 100 complete control)
Outline: (§1)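 Approximately 10-day greenhouse assay. Formulated chemical (non-phytotoxic solvent plus surfactant) applied preemergence to soil over seeds or postemergence to plants of 2 to 10 cm. Endpoint: visual percent control, 0–100.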

SMILES	Plant response rating, Pigweed
FC(F)(F)c1ccc(COc2c(Br)cccc2Oc2ncc(Cl)cn2)cc1 [Compound 19]	0

Same assay, conditions: Preemergence, 500 g ai/ha; 0 to 100 scale (0 no effect, 100 complete control)

SMILES	Plant response rating, Pigweed
FC(F)(F)c1ccc(COc2c(Br)cccc2Oc2ncc(Cl)cn2)cc1 [Compound 19]	0

Tested on: foxtail, giant (giant foxtail, Setaria faberii)
Experiment: Test A postemergence, giant foxtail
Type: in vivo
Conditions: 125 g ai/ha, postemergence; 0 to 100 scale, 0 is no effect, 100 is complete control; approximately 10 days
Outline: as §1

SMILES	Plant response rating, Foxtail, Giant
FC(F)(F)c1ccc(COc2c(Br)cccc2Oc2ncc(Cl)cn2)cc1 [Compound 19]	0

Same assay, conditions: 500 g ai/ha, postemergence; 0 to 100 scale, 0 is no effect, 100 is complete control; approximately 10 days

SMILES	Plant response rating, Foxtail, Giant
FC(F)(F)c1ccc(COc2c(Br)cccc2Oc2ncc(Cl)cn2)cc1 [Compound 19]	20

Tested on: barnyardgrass (Echinochloa crus-galli)
Experiment: Test A preemergence, barnyardgrass
Type: in vivo
Conditions: Preemergence, 125 g ai/ha; 0 to 100 scale (0 no effect, 100 complete control)
Outline: as §1

SMILES	Plant response rating, Barnyardgrass
FC(F)(F)c1ccc(COc2c(Br)cccc2Oc2ncc(Cl)cn2)cc1 [Compound 19]	0

Same assay, conditions: Preemergence, 500 g ai/ha; 0 to 100 scale (0 no effect, 100 complete control)

SMILES	Plant response rating, Barnyardgrass
FC(F)(F)c1ccc(COc2c(Br)cccc2Oc2ncc(Cl)cn2)cc1 [Compound 19]	60

Tested on: ducksalad (Heteranthera limosa)
Experiment: Test B flooded paddy test, ducksalad
Type: in vivo
Conditions: 250 g ai/ha, Flood; visual rating after 13 to 15 days; scale 0 to 100, 0 is no effect, 100 is complete control
Outline: (§2)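 Visual ratings, 0 = no effect to 100 = complete control, versus controls after 13 to 15 days in greenhouse. Test compounds were added to paddy water kept 3 cm over the soil surface, on plants at 2-leaf stage.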

SMILES	Plant response rating, Ducksalad
FC(F)(F)c1ccc(COc2c(Br)cccc2Oc2ncc(Cl)cn2)cc1 [Compound 19]	0

Tested on: kochia (Kochia scoparia)
Experiment: Test A postemergence, kochia
Type: in vivo
Conditions: 125 g ai/ha, postemergence; 0 to 100 scale, 0 is no effect, 100 is complete control; approximately 10 days
Outline: as §1

SMILES	Plant response rating, Kochia
FC(F)(F)c1ccc(COc2c(Br)cccc2Oc2ncc(Cl)cn2)cc1 [Compound 19]	10

Same assay, conditions: 500 g ai/ha, postemergence; 0 to 100 scale, 0 is no effect, 100 is complete control; approximately 10 days

SMILES	Plant response rating, Kochia
FC(F)(F)c1ccc(COc2c(Br)cccc2Oc2ncc(Cl)cn2)cc1 [Compound 19]	50

Tested on: barnyardgrass (Echinochloa crus-galli)
Experiment: Test A postemergence, barnyardgrass
Type: in vivo
Conditions: 125 g ai/ha, postemergence; 0 to 100 scale, 0 is no effect, 100 is complete control; approximately 10 days
Outline: as §1

SMILES	Plant response rating, Barnyardgrass
FC(F)(F)c1ccc(COc2c(Br)cccc2Oc2ncc(Cl)cn2)cc1 [Compound 19]	0

Same assay, conditions: 500 g ai/ha, postemergence; 0 to 100 scale, 0 is no effect, 100 is complete control; approximately 10 days

SMILES	Plant response rating, Barnyardgrass
FC(F)(F)c1ccc(COc2c(Br)cccc2Oc2ncc(Cl)cn2)cc1 [Compound 19]	20

Tested on: galium (catchweed bedstraw, Galium aparine)
Experiment: Test A postemergence, galium
Type: in vivo
Conditions: 125 g ai/ha, postemergence; 0 to 100 scale, 0 is no effect, 100 is complete control; approximately 10 days
Outline: as §1

SMILES	Plant response rating, Galium
FC(F)(F)c1ccc(COc2c(Br)cccc2Oc2ncc(Cl)cn2)cc1 [Compound 19]	0

Same assay, conditions: 500 g ai/ha, postemergence; 0 to 100 scale, 0 is no effect, 100 is complete control; approximately 10 days

SMILES	Plant response rating, Galium
FC(F)(F)c1ccc(COc2c(Br)cccc2Oc2ncc(Cl)cn2)cc1 [Compound 19]	30

Tested on: kochia (Kochia scoparia)
Experiment: Test A preemergence, kochia
Type: in vivo
Conditions: Preemergence, 125 g ai/ha; 0 to 100 scale (0 no effect, 100 complete control)
Outline: as §1

SMILES	Plant response rating, Kochia
FC(F)(F)c1ccc(COc2c(Br)cccc2Oc2ncc(Cl)cn2)cc1 [Compound 19]	0

Same assay, conditions: Preemergence, 500 g ai/ha; 0 to 100 scale (0 no effect, 100 complete control)

SMILES	Plant response rating, Kochia
FC(F)(F)c1ccc(COc2c(Br)cccc2Oc2ncc(Cl)cn2)cc1 [Compound 19]	0

Tested on: foxtail, giant (giant foxtail, Setaria faberii)
Experiment: Test A preemergence, giant foxtail
Type: in vivo
Conditions: Preemergence, 125 g ai/ha; 0 to 100 scale (0 no effect, 100 complete control)
Outline: as §1

SMILES	Plant response rating, Foxtail, Giant
FC(F)(F)c1ccc(COc2c(Br)cccc2Oc2ncc(Cl)cn2)cc1 [Compound 19]	10

Same assay, conditions: Preemergence, 500 g ai/ha; 0 to 100 scale (0 no effect, 100 complete control)

SMILES	Plant response rating, Foxtail, Giant
FC(F)(F)c1ccc(COc2c(Br)cccc2Oc2ncc(Cl)cn2)cc1 [Compound 19]	90

Tested on: barnyardgrass (Echinochloa crus-galli)
Experiment: Test B flooded paddy test, barnyardgrass
Type: in vivo
Conditions: 250 g ai/ha, Flood; visual rating after 13 to 15 days; scale 0 to 100, 0 is no effect, 100 is complete control
Outline: as §2

SMILES	Plant response rating, Barnyardgrass
FC(F)(F)c1ccc(COc2c(Br)cccc2Oc2ncc(Cl)cn2)cc1 [Compound 19]	0

Tested on: ryegrass, Italian (Italian ryegrass, Lolium multiflorum)
Experiment: Test A postemergence, Italian ryegrass
Type: in vivo
Conditions: 125 g ai/ha, postemergence; 0 to 100 scale, 0 is no effect, 100 is complete control; approximately 10 days
Outline: as §1

SMILES	Plant response rating, Ryegrass, Italian
FC(F)(F)c1ccc(COc2c(Br)cccc2Oc2ncc(Cl)cn2)cc1 [Compound 19]	0

Same assay, conditions: 500 g ai/ha, postemergence; 0 to 100 scale, 0 is no effect, 100 is complete control; approximately 10 days

SMILES	Plant response rating, Ryegrass, Italian
FC(F)(F)c1ccc(COc2c(Br)cccc2Oc2ncc(Cl)cn2)cc1 [Compound 19]	0

Tested on: blackgrass (Alopecurus myosuroides)
Experiment: Test A postemergence, blackgrass
Type: in vivo
Conditions: 125 g ai/ha, postemergence; 0 to 100 scale, 0 is no effect, 100 is complete control; approximately 10 days
Outline: as §1

SMILES	Plant response rating, Blackgrass
FC(F)(F)c1ccc(COc2c(Br)cccc2Oc2ncc(Cl)cn2)cc1 [Compound 19]	0

Same assay, conditions: 500 g ai/ha, postemergence; 0 to 100 scale, 0 is no effect, 100 is complete control; approximately 10 days

SMILES	Plant response rating, Blackgrass
FC(F)(F)c1ccc(COc2c(Br)cccc2Oc2ncc(Cl)cn2)cc1 [Compound 19]	10

Tested on: ragweed (common ragweed, Ambrosia elatior)
Experiment: Test A preemergence, ragweed
Type: in vivo
Conditions: Preemergence, 125 g ai/ha; 0 to 100 scale (0 no effect, 100 complete control)
Outline: as §1

SMILES	Plant response rating, Ragweed
FC(F)(F)c1ccc(COc2c(Br)cccc2Oc2ncc(Cl)cn2)cc1 [Compound 19]	0

Same assay, conditions: Preemergence, 500 g ai/ha; 0 to 100 scale (0 no effect, 100 complete control)

SMILES	Plant response rating, Ragweed
FC(F)(F)c1ccc(COc2c(Br)cccc2Oc2ncc(Cl)cn2)cc1 [Compound 19]	0

Tested on: sedge, umbrella (small-flower umbrella sedge, Cyperus difformis)
Experiment: Test B flooded paddy test, umbrella sedge
Type: in vivo
Conditions: 250 g ai/ha, Flood; visual rating after 13 to 15 days; scale 0 to 100, 0 is no effect, 100 is complete control
Outline: as §2

SMILES	Plant response rating, Sedge, Umbrella
FC(F)(F)c1ccc(COc2c(Br)cccc2Oc2ncc(Cl)cn2)cc1 [Compound 19]	0

Tested on: ragweed (common ragweed, Ambrosia elatior)
Experiment: Test A postemergence, ragweed
Type: in vivo
Conditions: 125 g ai/ha, postemergence; 0 to 100 scale, 0 is no effect, 100 is complete control; approximately 10 days
Outline: as §1

SMILES	Plant response rating, Ragweed
FC(F)(F)c1ccc(COc2c(Br)cccc2Oc2ncc(Cl)cn2)cc1 [Compound 19]	10

Same assay, conditions: 500 g ai/ha, postemergence; 0 to 100 scale, 0 is no effect, 100 is complete control; approximately 10 days

SMILES	Plant response rating, Ragweed
FC(F)(F)c1ccc(COc2c(Br)cccc2Oc2ncc(Cl)cn2)cc1 [Compound 19]	20

Tested on: rice (Oryza sativa)
Experiment: Test B flooded paddy test, rice
Type: in vivo
Conditions: 250 g ai/ha, Flood; visual rating after 13 to 15 days; scale 0 to 100, 0 is no effect, 100 is complete control
Outline: as §2

SMILES	Plant response rating, Rice
FC(F)(F)c1ccc(COc2c(Br)cccc2Oc2ncc(Cl)cn2)cc1 [Compound 19]	0

Tested on: corn (Zea mays)
Experiment: Test A postemergence, corn
Type: in vivo
Conditions: 125 g ai/ha, postemergence; 0 to 100 scale, 0 is no effect, 100 is complete control; approximately 10 days
Outline: as §1

SMILES	Plant response rating, Corn
FC(F)(F)c1ccc(COc2c(Br)cccc2Oc2ncc(Cl)cn2)cc1 [Compound 19]	10

Same assay, conditions: 500 g ai/ha, postemergence; 0 to 100 scale, 0 is no effect, 100 is complete control; approximately 10 days

SMILES	Plant response rating, Corn
FC(F)(F)c1ccc(COc2c(Br)cccc2Oc2ncc(Cl)cn2)cc1 [Compound 19]	30

Tested on: ryegrass, Italian (Italian ryegrass, Lolium multiflorum)
Experiment: Test A preemergence, Italian ryegrass
Type: in vivo
Conditions: Preemergence, 125 g ai/ha; 0 to 100 scale (0 no effect, 100 complete control)
Outline: as §1

SMILES	Plant response rating, Ryegrass, Italian
FC(F)(F)c1ccc(COc2c(Br)cccc2Oc2ncc(Cl)cn2)cc1 [Compound 19]	0

Same assay, conditions: Preemergence, 500 g ai/ha; 0 to 100 scale (0 no effect, 100 complete control)

SMILES	Plant response rating, Ryegrass, Italian
FC(F)(F)c1ccc(COc2c(Br)cccc2Oc2ncc(Cl)cn2)cc1 [Compound 19]	20

Tested on: pigweed (Amaranthus retroflexus)
Experiment: Test A postemergence, pigweed
Type: in vivo
Conditions: 125 g ai/ha, postemergence; 0 to 100 scale, 0 is no effect, 100 is complete control; approximately 10 days
Outline: as §1

SMILES	Plant response rating, Pigweed
FC(F)(F)c1ccc(COc2c(Br)cccc2Oc2ncc(Cl)cn2)cc1 [Compound 19]	20

Same assay, conditions: 500 g ai/ha, postemergence; 0 to 100 scale, 0 is no effect, 100 is complete control; approximately 10 days

SMILES	Plant response rating, Pigweed
FC(F)(F)c1ccc(COc2c(Br)cccc2Oc2ncc(Cl)cn2)cc1 [Compound 19]	100

Tested on: wheat (Triticum aestivum)
Experiment: Test A postemergence, wheat
Type: in vivo
Conditions: 125 g ai/ha, postemergence; 0 to 100 scale, 0 is no effect, 100 is complete control; approximately 10 days
Outline: as §1

SMILES	Plant response rating, Wheat
FC(F)(F)c1ccc(COc2c(Br)cccc2Oc2ncc(Cl)cn2)cc1 [Compound 19]	0

Same assay, conditions: 500 g ai/ha, postemergence; 0 to 100 scale, 0 is no effect, 100 is complete control; approximately 10 days

SMILES	Plant response rating, Wheat
FC(F)(F)c1ccc(COc2c(Br)cccc2Oc2ncc(Cl)cn2)cc1 [Compound 19]	20
